From patent US11890287B2, “Therapeutic compounds and compositions for treating social disorders and substance use disorders” (Kinoxis Therapeutics Pty Ltd, priority 2015, dated 2024)
Entries after “also recorded” stand apart in the source; their conditions may differ.

How the values were obtained:
[1] = system: male Albino Wistar rats; assay: Social preference test (caged conspecific vs toy rat); type: in vivo; details: 5 mg/kg IP
[2] = system: rhesus monkeys; assay: Intravenous cocaine self-administration; type: in vivo, rhesus monkey; details: 3 mg/kg orally
[3] = In vitro plasma stability assay; type: in vitro ADME; details: human, incubated at body temperature
[4] = biological target: human V1a receptor (Homo sapiens, UniProt P37288); assay: Orthosteric binding against [3H]AVP
Chain of human V1a receptor (P37288 whole entry): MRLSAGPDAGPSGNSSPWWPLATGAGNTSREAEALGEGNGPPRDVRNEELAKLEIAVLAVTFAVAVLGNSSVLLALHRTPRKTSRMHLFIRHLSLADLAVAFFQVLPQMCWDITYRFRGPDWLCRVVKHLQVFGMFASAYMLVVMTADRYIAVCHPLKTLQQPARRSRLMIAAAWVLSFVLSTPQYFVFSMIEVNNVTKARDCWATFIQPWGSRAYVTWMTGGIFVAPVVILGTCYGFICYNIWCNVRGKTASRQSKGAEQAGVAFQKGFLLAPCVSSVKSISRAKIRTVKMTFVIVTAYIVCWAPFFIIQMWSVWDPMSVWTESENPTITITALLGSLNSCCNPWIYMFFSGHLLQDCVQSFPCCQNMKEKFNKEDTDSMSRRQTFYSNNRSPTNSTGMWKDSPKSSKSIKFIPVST

[5] = system: rats; assay: In vivo toxicity/adverse events; parameters: species or system rat
Experimental: However, the rats were not ataxic or comatose, they were simply in a relaxed quiescent state. […] Effects on body temperature and other behaviours are not blocked by pre-treatment with the vasopressin V1A receptor antagonist SR49059 (10 mg/kg). […] The data in these two studies was gathered with DataSciences International biotelemetry system.

[6] = system: rats; assay: Non-social tests of anxiety (elevated plus maze, open field); type: in vivo, rat; details: acute dosing or residual long-term effect
[7] = system: rats; assay: Conditioned place preference; details: rat, in vivo
[8] = system: male Sprague Dawley rats; assay: Methamphetamine IVSA under a progressive ratio schedule; type: in vivo, rat
Experimental: Following recovery from surgery, rats were able to self-administer intravenous METH during 2 hour sessions. At the beginning of each session, catheters were flushed with 0.1 ml heparinised saline (10 IU/ml) and were connected to the infusion line. Lever extension and house light illumination indicated the initiation of the session. […] Depression of the active lever delivered a 3 s infusion of METH (0.1 mg/kg/infusion, 50 μL), illuminated the cue light, and extinguished the house light. The house light was extinguished for a 20 second time period during which depression of the active lever had no programmed consequences. […] At the end of each session, the infusion line was disconnected and catheters were flushed with 0.2 ml of cephazolin sodium in heparinized saline solution.
Rats acquired self-administration of METH during daily 2 hour fixed ratio 1 scheduled sessions. To avoid overdose, each rat was limited to a maximum of 60 infusions per session. Rats continued under the FR-1 schedule until stable responding was met as indicated by less than 10% variability in number of infusions and active lever presses compared to the day prior. Stable self-administration baselines were achieved within 10 days, after which rats advanced to the progressive ratio schedule.
Under the progressive ratio (PR) schedule, METH infusions were delivered according to the ratio: ((5×(e^reinforcer #×0.2)−5). The number of active lever presses that were required to receive one METH infusion increased according to the following sequence: 1, 2, 4, 6, 9, 12, 15, 20, 25, 32, 40, 50, 62, 77, 95, 118, 145, 178, 219, 268 (Cornish et al., 2005). The daily PR sessions were completed after 2 hours or if an infusion had not been self-administered for 60 minutes. Rats continued with PR sessions until lever pressing stabilised, which was determined by less than 10% variability in number of infusions and active lever presses for two consecutive days. Lever pressing stabilised after 7 days. During this time, the rats were given a sham saline i.p. (1 ml/kg) injection prior to the session. […]

**Q.** With Cl.Cn1ncc2c1Nc1ccccc1NC2 [SOC-1] as the compound, how does the “preference for the live rat over a toy rat” value [1] read?
**A.** enhanced rats natural preference for an unfamiliar live rat; also recorded: significantly elevated preference for the live rat

**Q.** What about the food consumption [2] of the same compound?
**A.** without affecting food consumption

**Q.** And the “intravenous cocaine self-administration relative to baseline levels” value [2]?
**A.** nearly halved

**Q.** What about the half-life at 500 nM [3] of the same compound?
**A.** > 6 h

**Q.** And the IC50 [4]?
**A.** > 10 µM

**Q.** What about the locomotor activity ([5]; 10-20 mg/kg IP) of the same compound?
**A.** some mild inhibition of locomotor activity

**Q.** And the “tolerability of repeated dosing (body weight, coat condition)” value ([5]; repeated dosing)?
**A.** without any apparent adverse effects

**Q.** And the “effect in non-social tests of anxiety” value [6]?
**A.** without effect

**Q.** And the conditioned place preference [7]?
**A.** does not produce a conditioned place preference

**Q.** What about the “active lever pressing under a PR schedule” value ([8]; 5 mg (p=0.043) and 10 mg/kg (p=0.007) IP vs vehicle) of the same compound?
**A.** significantly reduced active lever pressing

**Q.** What about the infusion breakpoint ([8]; 10 mg/kg IP, p=0.001 vs vehicle) of the same compound?
**A.** significant reduction

**Q.** What about the locomotor activity ([8]; 10 mg/kg IP, p=0.005 vs vehicle) of the same compound?
**A.** significant reduction
